Measured values reported in patent US9913831B2, “Methods and compositions for treating nephrogenic diabetes insipidus” (UNIVERSITY OF UTAH RESEARCH FOUNDATION, priority 2011, dated 2018).

What was measured:
lithium-treated rats = assay: Effect of clopidogrel on lithium-induced alterations in rats (natriuresis, urinary nitrates/nitrites, hematocrit, body and kidney weight); details: 2 weeks
Method: (§1) Animal experiments: Male Sprague-Dawley rats were purchased from Charles River (Wilmington, Mass., USA), and Brattleboro mutant rats that lack AVP (HsdBlu:BRAT-Avp^di) were obtained from the Rat Resource & Research Center (RRRC), University of Missouri, Columbia, Mo., USA. Mice (B6D2 genetic background) were bred in-house. […] Lithium-added chow (40 mmol Li/kg chow) was custom prepared (MP Biomedicals, Aurora, Ohio, USA). Clopidogrel bisulfate was administered orally by powdering and dissolving Plavix® tablets (Bristol-Myers Squibb, New York, N.Y., USA) in drinking water. The concentration of the drug in the drinking water was adjusted daily based on the water consumption of the animals the previous day. The clopidogrel dose used in Sprague-Dawley rats (20 mg/kg bw/day) was the same as used by other investigators (de La Crux et al, 2003; Graciano et al, 2008). In mice, clopidogrel was administered at a dose of 80 mg/kg bw/day. When compared with the human clinical dose of Plavix®, and adjusted to the Km factor (ratio of body surface area to body weight) of the species (man vs. rat or mouse) (Reagan-Shaw et al, 2007), the doses used in rats or mice were 2.5- and 5-fold higher, respectively. […] A higher dose of clopidogrel (40 mg/kg bw/day) was used in Brattleboro rats to ensure an unequivocal outcome whether positive or negative. Twenty-four hour urine samples were collected by placing the animals in the appropriate metabolic cages designed for rats and mice. Blood and kidney tissues were collected at necropsy. Cortical, outer and inner medullary regions of the kidneys were dissected out and processed for laboratory assays.
(§2) Blood, urine and tissue analysis: Osmolalities of clear urine samples were measured by vapor pressure method (Wescor, Logan, Utah, USA). Microhematocrit was determined by centrifuging free-flowing blood collected in heparinized capillary tubes in a microhematocrit centrifuge (Clay Adams, Parsippany, N.J., USA). Urinary excretion of AVP was quantified by a commercial ELISA kit (Enzo Life Sciences, Farmingdale, N.Y., USA). Total nitrate/nitrite contents of urine samples were determined by a commercial kit (Cayman Chemical, Ann Arbor, Mich.).Na, Li and K levels in serum and/or urine were determined on EasyElectrolyte® (Medica Corp., Bedford, Mass., USA). Based on serum and urine analysis, electrolyte-free clearance [CH20(e)] was computed using the formula CH20(e)=V((1−UNa+UK)/PNa), where V=urine volume, UNa and UK are urine Na and K, and PNa is plasma Na, respectively (Schrier 2006). Lithium levels in inner medullary tissue homogenates were assayed by Inductively Coupled Plasma-Mass Spectrometry (ICPMS) by Exova (Santa Fe Springs, Calif., USA), and were normalized to their respective protein contents.
Statistical Analysis: All quantitative data are expressed as mean±standard error (SE). Comparisons among the means of multiple groups were made by one-way analysis of variance (ANOVA), followed by the assessment of statistical significance by Tukey-Kramer Multiple Comparison Test or Student-Newman-Keuls Multiple Comparison Test. Differences between the means of two groups were determined by unpaired t test or where applicable, by Mann-Whitney nonparametric test. P values less than 0.05 were considered significant. GraphPad Instat® (GraphPad Software, Inc., La Jolla, Calif.) was used for statistical analysis.

[1] = test system: lithium-induced polyuria in mice (B6D2 genetic background); details: lithium diet + clopidogrel 80 mg/kg bw/day 14 days vs LI alone, P<0.05 or better
Method: (§3) Animal experiments: Male Sprague-Dawley rats were purchased from Charles River (Wilmington, Mass., USA), and Brattleboro mutant rats that lack AVP (HsdBlu:BRAT-Avpdi) were obtained from the Rat Resource & Research Center (RRRC), University of Missouri, Columbia, Mo., USA. Mice (B6D2 genetic background) were bred in-house. […] Lithium-added chow (40 mmol Li/kg chow) was custom prepared (MP Biomedicals, Aurora, Ohio, USA). Clopidogrel bisulfate was administered orally by powdering and dissolving Plavix® tablets (Bristol-Myers Squibb, New York, N.Y., USA) in drinking water. The concentration of the drug in the drinking water was adjusted daily based on the water consumption of the animals the previous day. The clopidogrel dose used in Sprague-Dawley rats (20 mg/kg bw/day) was the same as used by other investigators (de La Crux et al, 2003; Graciano et al, 2008). In mice, clopidogrel was administered at a dose of 80 mg/kg bw/day. When compared with the human clinical dose of Plavix®, and adjusted to the Km factor (ratio of body surface area to body weight) of the species (man vs. rat or mouse) (Reagan-Shaw et al, 2007), the doses used in rats or mice were 2.5- and 5-fold higher, respectively. […]
The effect of administration of clopidogrel on lithium-induced polyuria was determined in mice (B6D2 genetic background). […]

Brattleboro mutant rats = details: Brattleboro rats lacking AVP, clopidogrel 40 mg/kg bw/day in drinking water 2 weeks
Method: Animal experiments: Male Sprague-Dawley rats were purchased from Charles River (Wilmington, Mass., USA), and Brattleboro mutant rats that lack AVP (HsdBlu:BRAT-Avp^di) were obtained from the Rat Resource & Research Center (RRRC), University of Missouri, Columbia, Mo., USA. Mice (B6D2 genetic background) were bred in-house. […] Lithium-added chow (40 mmol Li/kg chow) was custom prepared (MP Biomedicals, Aurora, Ohio, USA). Clopidogrel bisulfate was administered orally by powdering and dissolving Plavix® tablets (Bristol-Myers Squibb, New York, N.Y., USA) in drinking water. The concentration of the drug in the drinking water was adjusted daily based on the water consumption of the animals the previous day. […]
Blood, urine and tissue analysis: Osmolalities of clear urine samples were measured by vapor pressure method (Wescor, Logan, Utah, USA). Microhematocrit was determined by centrifuging free-flowing blood collected in heparinized capillary tubes in a microhematocrit centrifuge (Clay Adams, Parsippany, N.J., USA). Urinary excretion of AVP was quantified by a commercial ELISA kit (Enzo Life Sciences, Farmingdale, N.Y., USA). Total nitrate/nitrite contents of urine samples were determined by a commercial kit (Cayman Chemical, Ann Arbor, Mich.).Na, Li and K levels in serum and/or urine were determined on EasyElectrolyte® (Medica Corp., Bedford, Mass., USA). […]

AQP2 protein = details: mice, lithium diet + clopidogrel 80 mg/kg bw/day 14 days
Method: The effect of administration of clopidogrel on lithium-induced polyuria was determined in mice (B6D2 genetic background). Groups of mice were administered either a lithium-containing diet (40 mmol/kg chow; custom prepared by MP Biomedicals, Aurora, Ohio) or lithium-containing diet plus clopidogrel (80 mg per kg body weight per day in drinking water) for 14 days. Twenty-four urine samples were collected prior to the start of the treatment (day 0), on days 8 and 9, and days 13 and 14. The data plotted in the graphs represent the mean of the values obtained on the two consecutive days. Results are mean±SE; n=5 for LI alone group and n=6 for LI+CLPD group; ANOVA followed by Tukey Kramer Multiple Comparison Test.

[2] = rats, lithium diet with clopidogrel vs lithium alone, ICPMS
Method: as §2, with “Microhematocrit” for “Blood, urine and tissue analysis: Osmolalities of clear urine samples were measured by vapor pressure method (Wescor, Logan, Utah, USA). Microhematocrit”, “Total nitrate/nitrite contents of urine samples were determined by a commercial kit (Cayman Chemical, Ann Arbor, Mich.).Na, Li and K levels in serum and/or urine were determined on EasyElectrolyte® (Medica Corp., Bedford, Mass., USA).” left out

[3] = test system: lithium-induced polyuria in rats
Method: as §1, with “(HsdBlu:BRAT-Avpdi)” for “(HsdBlu:BRAT-Avp^di)”
as §2, with “Microhematocrit” for “Blood, urine and tissue analysis: Osmolalities of clear urine samples were measured by vapor pressure method (Wescor, Logan, Utah, USA). Microhematocrit”, “Total nitrate/nitrite contents of urine samples were determined by a commercial kit (Cayman Chemical, Ann Arbor, Mich.).Na, Li and K levels in serum and/or urine were determined on EasyElectrolyte® (Medica Corp., Bedford, Mass., USA).” left out

rats = details: upto 4 weeks; cited from earlier work
[4] = test system: ADP-activated P2Y12 receptor
Sprague-Dawley rats = test system: Sprague-Dawley rats
Method: as §3, with “bw/day.” for “bw/day. When compared with the human clinical dose of Plavix®, and adjusted to the Km factor (ratio of body surface area to body weight) of the species (man vs. rat or mouse) (Reagan-Shaw et al, 2007), the doses used in rats or mice were 2.5- and 5-fold higher, respectively.”
Microhematocrit was determined by centrifuging free-flowing blood collected in heparinized capillary tubes in a microhematocrit centrifuge (Clay Adams, Parsippany, N.J., USA). Urinary excretion of AVP was quantified by a commercial ELISA kit (Enzo Life Sciences, Farmingdale, N.Y., USA). […]

[5] = test system: AQP2 water channel protein; details: normal rats, clopidogrel 20 mg/kg bw/day in drinking water 13 days, vs control
Method: (§4) Tissue samples were prepared and immnoblotted for semi-quantitative determination of protein abundances of P2Y12 receptor, and β-actin by the methods described previously (Zhang et al, ibid, 2008, 2009, 2010). Whole tissue homogenates were prepared in the presence of protease inhibitors, and the concentrations of proteins in the homogenates were determined, and solubilized in Laemmli buffer. Then the solubilized proteins were size fractionated on 12% SDS-polyacrylamide gels. Quality of tissue sample preparation and equality of protein loading were verified by staining parallel-run loading gels with Coomassie-blue (Gelcode Blue, Pierce Endogen, Rockford, Ill.). The size fractionated proteins were electrotransferred to nitrocellulose membranes, and blocked with buffer containing non-fat milk. Differences in protein loading were corrected by normalizing the band densities of the target proteins to that of β-actin (polyclonal antibody from Biolegend, San Diego, Calif., USA). After washing, the blocked membranes were incubated with rabbit polyclonal antibodies to either P2Y12 receptor (AnaSpec, Fremont, Calif.) or aquaporin-2 (AQP2; Zhang et al, ibid, 2008) or AQP1 (commercial source) or β-actin (Biolegend, San Diego, Calif.). Non-specific binding was prevented by incubation of the membranes with goat serum. Generation and characterization of AQP2 antibody (GN-762) was described previously (Kishore et al, 2000; Zhang et al, 2008). When peptide block was tested, prior to its use on the membranes the P2Y12 receptor antibody was pre-adsorbed by incubation with the blocking peptide as per the instructions of the supplier (AnaSpec, Fremont, Calif.). After washing off the primary antibodies, the nitrocellulose membranes were incubated with a peroxidase-conjugated secondary antibody to rabbit IgG (Dako North America, Carpinteria, Calif.). Chemiluminescence reaction was used to detect sites of antigen-antibody reactions (SuperSignal Substrate; Pierce Endogen, Rockford, Ill.), and captured on an X-ray film. Images were digitized and band densities were quantified by using Un-San-It software (Silk Scientific, Orem, Utah). The band densities of AQP2 were normalized by the band densities of β-actin. Mean values of relative band densities thus obtained for P2Y12 receptor were expressed as percent of the mean values obtained in the control group of animals.
(§5) Clopidogrel bisulfate was given orally to a group of Sprague-Dawley rats (n=4) for 13 days by dissolving powdered Plavix® tablets (75 mg base; Bristol-Myers Squibb/Sanofi, Bridgeport, N.J.) in drinking water, so that the rats consumed at least 20 mg of clopidogrel bisulfate base per kg body weight per day. The concentration of the drug in the drinking water was adjusted daily based on the water consumption of the rats the previous day. Another group of rats (n=4) was given plain water and this group served as controls.

AQP1 water channel = details: normal rats, clopidogrel 20 mg/kg bw/day 13 days
Method: as §4, §5

P2Y12 receptor = details: normal rats, clopidogrel 20 mg/kg bw/day 13 days
Method: as §4, §5

[6] = rats, lithium treatment alone (40 mmol Li/kg chow)
[7] = rats, lithium + clopidogrel (40 mg/kg bw/day per FIG. 11 legend)
[8] = rats, lithium + clopidogrel (40 mg/kg bw/day per FIG. 12 legend)

## [Li] [Lithium, lithium]
lithium-treated rats; lithium-treated rats with or without added clopidogrel
  kidney weight as a percent of body weight: did not change
lithium-treated rats; [6]
  gain in body weight: significantly low
  terminal hematocrit: significant elevation

## COC(=O)[C@H](c1ccccc1Cl)N1CCc2sccc2C1 [clopidogrel]
[1]
  water intake: significant decrease
Brattleboro mutant rats
  urinary concentrating ability: did not increase
AQP2 protein
  lithium-induced decrease in AQP2 protein abundance in the renal medulla: significantly prevented
lithium-treated rats; [7]
  lithium-induced increase in urinary NO3/NO2 (total nitrates/nitrites excretion): significantly ameliorated
  lithium-induced natriuresis (urinary sodium excretion): modest effect
lithium-treated rats; [8]
  lithium-induced increase in terminal hematocrit: reversed
  low gain in body weight due to lithium-treatment: did not ameliorate
[2]
  accumulation of lithium in the inner medulla: no effect
[3]; clopidogrel administered alone
  solute-free water absorption (negative value): modestly increased
[3]; co-administration of clopidogrel with lithium
  lithium-induced urinary AVP levels: augmented
[3]; lithium diet 40 mmol/kg chow + clopidogrel 20 mg/kg/day, 13 days
  lithium-induced polyuria: significantly ameliorated
[3]; lithium diet + clopidogrel 20 mg/kg/day, 13 days
  lithium-induced solute-free water excretion (electrolyte-free water clearance, positive value): effectively reversed
rats
  doses free from toxicity: ≤ 165 mg/kg bw/day
[4]; lithium-treated rodents
  development of AVP-resistant polyuria: blocked the development
[4]; rodents
  AVP in the urine (surrogate for plasma AVP levels): increased
  aquaporin-2 (AQP2) water channel protein in the kidney: increased
  urinary concentration: significantly increased
Sprague-Dawley rats; clopidogrel administration alone, rats
  urinary excretion of AVP: significantly increased
Sprague-Dawley rats; normal rats, clopidogrel 20 mg/kg bw/day in drinking water 13 days
  urinary concentration: Increased
[5]; P<0.002
  increase of AQP2 protein abundance in the inner medulla: 1.9 fold
[5]; P<0.02
  increase of AQP2 protein abundance in the cortex: 2.7 fold
[5]; P=0.24
  increase of AQP2 protein abundance in the outer medulla: not in the outer medulla
AQP1 water channel
  protein abundance of AQP1 water channel in the kidney: did not appear to alter
P2Y12 receptor
  protein abundance of P2Y12 receptor in the kidney: did not appear to alter
